# Results published in patent US9822147B2, “Methods of treating ophthalmic diseases using NPR-B agonists” (priority 2009, dated 2017).
# Numbered stars: 1 amine (or outer) side, 2 acyl side, 3 side chain; on linkers, the order of the positions; unused ones are H or OH. Square brackets hold non-standard residues; d marks the D form. Peptide text beside a SMILES is read from it. * marks the point of attachment. X14 = NCC(=O)N[C@@H]1C[C@@H](C(=O)[*:2])N([*:1])C1; X5 = NCCC(=O)N[C@@H]1C[C@@H](C(=O)[*:2])N([*:1])C1; X16 = CCN[C@@H]1C[C@@H](C(=O)[*:2])N([*:1])C1; Pro(4R-NH2) = N[C@H]1CN[C@H](C(=O)O)C1; X2 = O=C([C@H]1CCCN([*:1])C1)[*:2]; NMeL = CN[C@@H](CC(C)C)C(=O)O; dOrn = NCCC[C@@H](N)C(=O)O; Octanoyl = CCCCCCCC(=O)*; Api = NC1(C(=O)O)CCNCC1
# Molecular target: T1, NPR-B (Homo sapiens, UniProt P20594)
# T1 construct: a functional assay using endogenously NPR-B expressing GTM-3 cells; endogenous in cells; host or cells: GTM-3 (human glaucoma trabecular meshwork cells)
# T1 sequence (P20594 23-1047): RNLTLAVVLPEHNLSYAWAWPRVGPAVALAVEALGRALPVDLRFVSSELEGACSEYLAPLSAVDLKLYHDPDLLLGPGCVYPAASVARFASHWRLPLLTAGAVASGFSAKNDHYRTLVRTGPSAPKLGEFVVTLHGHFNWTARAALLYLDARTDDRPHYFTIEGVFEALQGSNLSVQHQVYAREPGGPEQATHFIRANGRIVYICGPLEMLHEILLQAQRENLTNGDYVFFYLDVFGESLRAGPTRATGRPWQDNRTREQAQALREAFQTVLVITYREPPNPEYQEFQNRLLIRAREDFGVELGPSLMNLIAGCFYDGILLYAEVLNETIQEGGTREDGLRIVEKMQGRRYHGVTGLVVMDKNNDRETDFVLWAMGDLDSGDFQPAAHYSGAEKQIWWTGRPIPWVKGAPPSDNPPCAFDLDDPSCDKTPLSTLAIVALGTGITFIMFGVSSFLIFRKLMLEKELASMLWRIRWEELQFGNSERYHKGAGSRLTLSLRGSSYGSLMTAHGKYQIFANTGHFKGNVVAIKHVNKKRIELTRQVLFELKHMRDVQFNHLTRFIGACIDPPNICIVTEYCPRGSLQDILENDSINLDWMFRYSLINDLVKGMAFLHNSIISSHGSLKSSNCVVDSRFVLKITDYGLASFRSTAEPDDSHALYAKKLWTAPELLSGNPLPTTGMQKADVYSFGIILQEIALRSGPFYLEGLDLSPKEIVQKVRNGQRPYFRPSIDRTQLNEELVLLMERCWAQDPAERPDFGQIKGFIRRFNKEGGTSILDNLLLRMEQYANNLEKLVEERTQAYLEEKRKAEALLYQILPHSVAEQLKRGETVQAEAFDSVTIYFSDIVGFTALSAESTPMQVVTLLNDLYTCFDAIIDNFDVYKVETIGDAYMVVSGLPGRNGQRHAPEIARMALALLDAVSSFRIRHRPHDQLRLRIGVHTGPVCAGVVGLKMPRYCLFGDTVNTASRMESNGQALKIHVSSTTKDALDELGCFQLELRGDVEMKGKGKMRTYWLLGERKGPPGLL
# Assay: NPR-B induced production of cyclic GMP in human glaucoma trabecular meshwork cells (GTM-3)
# Assay type: cell-based
# Conditions: not given
row,Compound,EC50 [nM]
1,"CCCCCCCC(=O)N1CCC[C@H](C(=O)N[C@@H](Cc2ccccc2)C(=O)NCC(=O)N[C@@H](CC(C)C)C(=O)N2C[C@H](N)C[C@H]2C(=O)N(C)[C@@H](CC(C)C)C(=O)N[C@@H](CC(=O)O)C(=O)N[C@@H](CCCNC(=N)N)C(=O)N[C@H](C(N)=O)[C@@H](C)CC)C1 [JAL-1320, Occ-Sni-Phe-Gly-Leu-Tap-Nml-Asp-Arg-Ile-NH2] (Octanoyl-[X2]FGL[Pro(4R-NH2)][NMeL]DRI-NH2)",< 1000

# Same assay, conditions: group by EC50 and Emax (CNP = 100%); Table 4; read-out: Activity (group), NPR-B activation assayed with GTM-3 cells
row,EC50 [nM],Compound
1,< 1000,"CCCCCCCCN1CCC[C@H](C(=O)N[C@@H](Cc2ccccc2)C(=O)N[C@H](CC(C)C)C(=O)N[C@@H](CC(C)C)C(=O)N2C[C@H](O)C[C@H]2C(=O)N(C)[C@@H](CC(C)C)C(=O)N[C@@H](CC(=O)O)C(=O)N[C@@H](CCCNC(=N)N)C(=O)N[C@H](C(N)=O)[C@@H](C)CC)C1 [JAL-1302, Oct-Sni-Phe-leu-Leu-Hyp-Nml-Asp-Arg-Ile-NH2] (HELM PEPTIDE1{[CCCCCCCCN1CCC[C@H](C(=O)[*:2])C1].F.[dL].L.[Hyp].[meL].D.R.I.[am]}$$$$V2.0)"
2,< 1000,"CCCCCCCC(=O)N[C@H](C)C(=O)N[C@@H](Cc1ccccc1)C(=O)N[C@H](CCCNC(=N)N)C(=O)N[C@@H](CC(C)C)C(=O)N1C[C@H](O)C[C@H]1C(=O)N(C)[C@@H](CC(C)C)C(=O)N[C@@H](CC(=O)O)C(=O)N[C@@H](CCCNC(=N)N)C(=O)N[C@H](C(N)=O)C(C)(C)C [JAL-1305, Occ-ala-Phe-arg-Leu-Hyp-Nml-Asp-Arg-Tbg-NH2] (HELM PEPTIDE1{[CCCCCCCC(=O)[*:2]].[dA].F.[dR].L.[Hyp].[meL].D.R.[CC(C)(C)[C@H](N[*:1])C(=O)[*:2]].[am]}$$$$V2.0)"
3,< 1000,"CCCCCCCC(=O)N1CCC[C@H](C(=O)N[C@@H](Cc2ccccc2)C(=O)N[C@H](CCCNC(=N)N)C(=O)N[C@@H](CC(C)C)C(=O)N2C[C@H](N)C[C@H]2C(=O)N(C)[C@@H](CC(C)C)C(=O)N[C@@H](CC(=O)O)C(=O)N[C@@H](CCCNC(=N)N)C(=O)N[C@H](C(N)=O)[C@@H](C)CC)C1 [JAL-1317, Occ-Sni-Phe-arg-Leu-Tap-Nml-Asp-Arg-Ile-NH2] (Octanoyl-[X2]F[dR]L[Pro(4R-NH2)][NMeL]DRI-NH2)"
4,< 1000,"CCCCCCCC(=O)N1CCC[C@H](C(=O)N[C@@H](Cc2ccccc2)C(=O)N[C@H](CCCN)C(=O)N[C@@H](CC(C)C)C(=O)N2C[C@H](N)C[C@H]2C(=O)N(C)[C@@H](CC(C)C)C(=O)N[C@@H](CC(=O)O)C(=O)N[C@@H](CCCNC(=N)N)C(=O)N[C@H](C(N)=O)[C@@H](C)CC)C1 [JAL-1318, Occ-Sni-Phe-orn-Leu-Tap-Nml-Asp-Arg-Ile-NH2] (Octanoyl-[X2]F[dOrn]L[Pro(4R-NH2)][NMeL]DRI-NH2)"
5,< 1000,"CCCCCCCC(=O)N1CCC[C@H](C(=O)N[C@@H](Cc2ccccc2)C(=O)N[C@H](CC(C)C)C(=O)N[C@@H](CC(C)C)C(=O)N2C[C@H](NC(=O)CN)C[C@H]2C(=O)N(C)[C@@H](CC(C)C)C(=O)N[C@@H](CC(=O)O)C(=O)N[C@@H](CCCNC(=N)N)C(=O)N[C@H](C(N)=O)[C@@H](C)CC)C1 [JAL-1322, Occ-Sni-Phe-leu-Leu-Tap(G)-Nml-Asp-Arg-Ile-NH2] (Octanoyl-[X2]F[dL]L[X14][NMeL]DRI-NH2)"
6,< 1000,"CCCCCCCC(=O)N1CCC[C@H](C(=O)N[C@@H](Cc2ccccc2)C(=O)N[C@H](CC(C)C)C(=O)N[C@@H](CC(C)C)C(=O)N2C[C@H](NC(=O)CCN)C[C@H]2C(=O)N(C)[C@@H](CC(C)C)C(=O)N[C@@H](CC(=O)O)C(=O)N[C@@H](CCCNC(=N)N)C(=O)N[C@H](C(N)=O)[C@@H](C)CC)C1 [JAL-1323, Occ-Sni-Phe-leu-Leu-Tap(Bal)-Nml-Asp-Arg-Ile-NH2] (Octanoyl-[X2]F[dL]L[X5][NMeL]DRI-NH2)"
7,< 1000,"CCCCCCCCN1CCC[C@H](C(=O)N[C@@H](Cc2ccccc2)C(=O)N[C@H](CC(C)C)C(=O)N[C@@H](CC(C)C)C(=O)N2C[C@H](N)C[C@H]2C(=O)N(C)[C@@H](CC(C)C)C(=O)N[C@@H](CC(=O)O)C(=O)N[C@@H](CCCNC(=N)N)C(=O)N[C@H](C(N)=O)[C@@H](C)CC)C1 [JAL-1326, Oct-Sni-Phe-leu-Leu-Tap-Nml-Asp-Arg-Ile-NH2] (HELM PEPTIDE1{[CCCCCCCCN1CCC[C@H](C(=O)[*:2])C1].F.[dL].L.[N[C@@H]1C[C@@H](C(=O)[*:2])N([*:1])C1].[meL].D.R.I.[am]}$$$$V2.0)"
8,< 1000,"CCCCCCCC(=O)N[C@H](C)C(=O)N[C@@H](Cc1ccccc1)C(=O)N[C@H](CC(C)C)C(=O)N[C@@H](CC(C)C)C(=O)N1C[C@H](O)C[C@H]1C(=O)N(C)[C@@H](CC(C)C)C(=O)N[C@H](C(=O)N[C@@H](CCCNC(=N)N)C(=O)N[C@H](C(N)=O)[C@@H](C)CC)C(C)C [JAL-1332, Occ-ala-Phe-leu-Leu-Hyp-Nml-Val-Arg-Ile-NH2] (HELM PEPTIDE1{[CCCCCCCC(=O)[*:2]].[dA].F.[dL].L.[Hyp].[meL].V.R.I.[am]}$$$$V2.0)"
9,< 1000,"CCCCCCCC(=O)N[C@H](C)C(=O)N[C@@H](Cc1ccccc1)C(=O)NC(C(=O)N[C@@H](CC(C)C)C(=O)N1C[C@H](O)C[C@H]1C(=O)N(C)[C@@H](CC(C)C)C(=O)N[C@@H](CC(=O)O)C(=O)N[C@@H](CCCNC(=N)N)C(=O)N[C@H](C(N)=O)[C@@H](C)CC)C1CCCNC1 (stereo partly drawn) [JAL-1336, Occ-ala-Phe-Fhy-Leu-Hyp-Nml-Asp-Arg-Ile-NH2] (HELM PEPTIDE1{[CCCCCCCC(=O)[*:2]].[dA].F.[O=C(C(N[*:1])C1CCCNC1)[*:2]].L.[Hyp].[meL].D.R.I.[am]}$$$$V2.0)"
10,< 1000,"CCCCCCCC(=O)N[C@H](C)C(=O)N[C@@H](Cc1ccccc1)C(=O)NC1(C(=O)N[C@@H](CC(C)C)C(=O)N2C[C@H](O)C[C@H]2C(=O)N(C)[C@@H](CC(C)C)C(=O)N[C@@H](CC(=O)O)C(=O)N[C@@H](CCCNC(=N)N)C(=O)N[C@H](C(N)=O)[C@@H](C)CC)CCNCC1 [JAL-1338, Occ-ala-Phe-Apc-Leu-Hyp-Nml-Asp-Arg-Ile-NH2] (HELM PEPTIDE1{[CCCCCCCC(=O)[*:2]].[dA].F.[O=C(C1(N[*:1])CCNCC1)[*:2]].L.[Hyp].[meL].D.R.I.[am]}$$$$V2.0)"
11,< 1000,"CCCCCCCC(=O)N1CCC[C@H](C(=O)N[C@@H](Cc2ccccc2)C(=O)N[C@H](CC(C)C)C(=O)N[C@@H](CC(C)C)C(=O)N2C[C@H](NCC)C[C@H]2C(=O)N(C)[C@@H](CC(C)C)C(=O)N[C@@H](CC(=O)O)C(=O)N[C@@H](CCCNC(=N)N)C(=O)N[C@H](C(N)=O)[C@@H](C)CC)C1 [JAL-1349, Occ-Sni-Phe-leu-Leu-Tap(Et)-Nml-Asp-Arg-Ile-NH2] (Octanoyl-[X2]F[dL]L[X16][NMeL]DRI-NH2)"
12,< 1000,"CCCCCCCC(=O)N1CCC[C@H](C(=O)N[C@@H](Cc2ccccc2)C(=O)NC2(C(=O)N[C@@H](CC(C)C)C(=O)N3C[C@H](N)C[C@H]3C(=O)N(C)[C@@H](CC(C)C)C(=O)N[C@@H](CC(=O)O)C(=O)N[C@@H](CCCNC(=N)N)C(=O)N[C@H](C(N)=O)[C@@H](C)CC)CCNCC2)C1 [JAL-1351, Occ-Sni-Phe-Apc-Leu-Tap-Nml-Asp-Arg-Ile-NH2] (Octanoyl-[X2]F[Api]L[Pro(4R-NH2)][NMeL]DRI-NH2)"
